Target: mTOR/GbL/Raptor (mTORC1) (Homo sapiens, UniProt P42345)
Assay: mTOR/GbL/Raptor (mTORC1) ELISA assay, phosphorylation of 4E-BP1
Type: biochemical
Conditions: 0.2 nM mTORC1, 40 uM ATP, 50 nM NHis-tagged 4E-BP1, 120 minutes; read-out: IC50 in this assay (mTORC1 ELISA)
Description: The measurement of mTORC1 enzyme activity was performed in an ELISA assay format following the phosphorylation of 4E-BP1 protein. All experiments were performed in the 384-well format. Generally, 0.5 μL DMSO containing varying concentrations of the test Compound was mixed with 15 μL enzyme solution. Kinase reactions were initiated with the addition of 15 μL of substrates-containing solution. The assay conditions were-as follows; 0.2 nM mTORC1, 40 uM ATPand 50 nM NHis-tagged4E-BP1 in20 mM Hepes, pH 7.2, 1 mM DTT, 50 mMNaC1, 10 mM MnC12, 0.02 mg/mL BSA, 0.01% CHAPS, 50 mM β-glycerophosphate. Following an incubation of 120 minutes at anibient temperature, 20 μL of the reaction volume was transferred to a Ni-Chelate-coated 384-well plate. The binding step of the 4E-BP1 protein proceeded for 60 minutes, followed by washing 4 times each with 50 uL of Tris-buffered saline solution (TBS). Anti-phospho-4E-BPl rabbit-IgG ([…]. 1:5000) in 5% BSA-TBST (0.2% Tween-20 in TBS) was added and further incubated for 60 minutes. Incubation with a secondary HRP-tagged anti-IgG was similarly performed after washing off the primary antibody (4 washes of 50 μL). Following the final wash step with TBST, 20 μL of SuperSignal ELISA Femto (Pierce Biotechnology) was added and the luminescence measured using an En Vision plate reader.

SMILES | IC50
Cc1nc2ccc(-c3cc(C)c4c(c3)CN(c3nc(CN(C)C)nc(C)c3C(C)C)CCO4)cc2[nH]1 [Compound 45, N,N-dimethyl-1-{4-methyl-5-(1-methylethyl)-6-[9-methyl-7-(2-methyl-1H-benzimidazol-6-yl)-2,3-dihydro-1,4-benzoxazepin-4(5H)-yl]pyrimidin-2-yl}methanamine] | 100 to 500 nM
Cc1cc(-c2cnc3sc(N)nc3c2)cc2c1OCCN(c1nc(N)nc3c1CC(C)(C)CC3)C2 [Compound 10, 4-[7-(2-amino[1,3]thiazolo[5,4-b]pyridin-6-yl)-9-methyl-2,3-dihydro-1,4-benzoxazepin-4(5H)-yl]-6,6-dimethyl-5,6,7,8-tetrahydroquinazolin-2-amine] | ≤ 100 nM
Cc1cc(-c2cnc3sc(N)nc3c2)cc2c1OCCN(c1nc(CNCCF)nc(C)c1C(C)C)C2 [Compound 126, 6-{4-[2-{[(2-fluoroethyl)amino]methyl}-6-methyl-5-(1-methylethyl)pyrimidin-4-yl]-9-methyl-2,3,4,5-tetrahydro-1,4-benzoxazepin-7-yl}[1,3]thiazolo[5,4-b]pyridin-2-amine] | ≤ 100 nM
Cc1cc(-c2cnc3sc(N)nc3c2)cc2c1OCCN(c1ccc(C#N)cn1)C2 [Compound 36, 6-[7-(2-amino[1,3]thiazolo[5,4-b]pyridin-6-yl)-9-methyl-2,3-dihydro-1,4-benzoxazepin-4(5H)-yl]pyridine-3-carbonitrile] | 100 to 500 nM
Cc1cc(-c2cnc3sc(N)nc3c2)cc2c1OCCN(c1nc(CN3CCCC3)nc(C)c1C(C)C)C2 [Compound 59, 6-{9-methyl-4-[6-methyl-5-(1-methylethyl)-2-(pyrrolidin-1-ylmethyl)pyrimidin-4-yl]-2,3,4,5-tetrahydro-1,4-benzoxazepin-7-yl}[1,3]thiazolo[5,4-b]pyridin-2-amine] | ≤ 100 nM
Cc1cc(-c2cccc(O)c2)cc2c1OCCN(c1nc(N)nc(C)c1C(C)C)C2 [Compound 70, 3-{4-[2-amino-6-methyl-5-(1-methylethyl)pyrimidin-4-yl]-9-methyl-2,3,4,5-tetrahydro-1,4-benzoxazepin-7-yl}phenol] | 100 to 500 nM
Cc1nc(C)c(C(C)C)c(N2CCOc3c(C)cc(-c4cnc5sc(N)nc5c4)cc3C2)n1 [Compound 104, 6-{4-[2,6-dimethyl-5-(1-methylethyl)pyrimidin-4-yl]-9-methyl-2,3,4,5-tetrahydro-1,4-benzoxazepin-7-yl}[1,3]thiazolo[5,4-b]pyridin-2-amine] | ≤ 100 nM
Cc1cc(-c2cnc3sc(N)nc3c2)cc2c1OCCN(c1nc(C3CCCN3)nc(C)c1C(C)C)C2 (centres unmarked) [Compound 146, 6-{9-methyl-4-[6-methyl-5-(1-methylethyl)-2-pyrrolidin-2-ylpyrimidin-4-yl]-2,3,4,5-tetrahydro-1,4-benzoxazepin-7-yl}[1,3]thiazolo[5,4-b]pyridin-2-amine] | ≤ 100 nM
Cc1nc2c(c(N3CCOc4c(C)cc(-c5cnc6sc(N)nc6c5)cc4C3)n1)CC(C)(C)CC2 [Compound 20, 6-[9-methyl-4-(2,6,6-trimethyl-5,6,7,8-tetrahydroquinazolin-4-yl)-2,3,4,5-tetrahydro-1,4-benzoxazepin-7-yl][1,3]thiazolo[5,4-b]pyridin-2-amine] | ≤ 100 nM
CCc1c(Cl)nc(CN(C)C)nc1N1CCOc2c(C)cc(-c3cnc4sc(N)nc4c3)cc2C1 [Compound 61, 6-(4-{6-chloro-2-[(dimethylamino)methyl]-5-ethylpyrimidin-4-yl}-9-methyl-2,3,4,5-tetrahydro-1,4-benzoxazepin-7-yl)[1,3]thiazolo[5,4-b]pyridin-2-amine] | ≤ 100 nM
Cc1cc(-c2cnc3sc(N)nc3c2)cc2c1OCCN(c1nc(N)nc(Cl)c1C(C)C)C2 [Compound 62, 6-{4-[2-amino-6-chloro-5-(1-methylethyl)pyrimidin-4-yl]-9-methyl-2,3,4,5-tetrahydro-1,4-benzoxazepin-7-yl}[1,3]thiazolo[5,4-b]pyridin-2-amine] | ≤ 100 nM

From patent US20140107100A1, “Benzoxazepines as Inhibitors of PI3K/mTOR and Methods of Their Use and Manufacture” (EXELIXIS, INC., priority 2010, published 2014)
